A short description of this data set: Human HepG2 cell viability assay in 384 well format. The class given is toxicity, cell-based. Further details: dose 125 nL, time 70.5 hour; concentration not given beside the values. Particulars: HepG2 cells, read-out: Inhibition.
`CC(=O)N1C(CN2CCCC2)C[C@@H]2CN(C(=O)c3ccoc3)CC[C@@H]21` (stereo not given in full): the cytotoxicity at 70.5 h is -15.6%.

Take `O=C1CC2(CCCC2)CN1CCOc1ccc(F)cc1`: the cytotoxicity at 70.5 h was -9.74%.

As to `O=C1CCC2(CCCN(C(=O)c3cccs3)C2)N1` (stereo not given), the cytotoxicity at 70.5 h is 35.1%.

On to `COC(=O)CN1CC(c2nc(Cc3ccccc3)no2)C1`, for which the cytotoxicity at 70.5 h was -6.57%.

For the compound `O=C1[C@H]2CN(c3cnccn3)C[C@H]2CN1CC1CC1`, the cytotoxicity at 70.5 h is -12.5%.

For `Cc1cc(NCCS(C)(=O)=O)nc2cc3c(cc12)CCC3`, the cytotoxicity at 70.5 h was -5.3%.

Consider `CCC(C#N)NC(=O)CCNC(=O)C(C)(C)C` (stereo not given), for which the cytotoxicity at 70.5 h is 0.625%.

Consider `CN1C(=O)CCC12CCN(Cc1ccco1)CC2`, for which the cytotoxicity at 70.5 h is -12.2%.

As for `Cc1cccc(CC(=O)NCCCOC(C)C)c1`, the cytotoxicity at 70.5 h is -10.5%.

On to `COc1ccccc1-c1ccc(C(=O)N2C[C@H]3CC[C@@H]2CN(C)C3)cc1`, for which the cytotoxicity at 70.5 h is -8.1%.

`CC1c2ncc(CNC(=O)C3CC3)n2CCN1Cc1cnn(C)c1` (stereo not given): the cytotoxicity at 70.5 h is -12%.

For `CCCn1cc(C(=O)NCC(=O)NC2CC2)c(C)n1`, the cytotoxicity at 70.5 h is -0.483%.

For the compound `CSCC(C)(O)CNS(=O)(=O)c1ccc(F)cc1` (stereo not given), the cytotoxicity at 70.5 h is -7.51%.

Turning to `CCSc1ccccc1C(=O)NCCn1nc(C(F)(F)F)n(C)c1=O`, the cytotoxicity at 70.5 h is -4.82%.

As to `O=S(=O)(N1CCCC1)N(Cc1ccccc1)CC1CCCO1` (stereo not given), the cytotoxicity at 70.5 h was -7.82%.

For the compound `O=C(CCO)N1CCC2(CCc3ccc(-c4ccoc4)cc32)CC1`, the cytotoxicity at 70.5 h is -12.5%.

As to `CCN(CC1CCOC1)C(=O)c1cccnc1N1CCOCC1` (stereo not given), the cytotoxicity at 70.5 h was determined as 0.841%.

Consider `Cc1n[nH]c(C2CN(C(=O)c3ccco3)CCO2)n1` (stereo not given), for which the cytotoxicity at 70.5 h was -4.63%.

Consider `COc1ccc2c(c1)C(C(=O)N(C)CCn1ccnc1C)CC(=O)N2` (stereo not given), for which the cytotoxicity at 70.5 h is -3.22%.

For the compound `COc1ccc(C2=CCN(C(=O)CN(C)Cc3ccoc3)CC2)cc1`, the cytotoxicity at 70.5 h came to 49.4%.

Regarding `O=C(c1ccco1)N1C[C@H]2CCCN(CC3CCOCC3)[C@H]2C1`, the cytotoxicity at 70.5 h is -7.8%.

`CC(C)c1ccc(CN2CCN(C(=O)c3cc(C4CC4)[nH]n3)CC2)cc1`: the cytotoxicity at 70.5 h was 44.7%.

Turning to `CS(=O)(=O)N1CCN(C(=O)c2cc(-c3cccs3)cs2)CC1`, the cytotoxicity at 70.5 h was -5.33%.

For `Cc1noc([C@@H]2C[C@@H]3CCN(CC4CCOCC4)C[C@H]3O2)n1`, the cytotoxicity at 70.5 h was -4.62%.

Turning to `CCn1c(CNCC2CCCN2c2cccnn2)nc2ccccc21` (stereo not given), the cytotoxicity at 70.5 h is -9.03%.

On to `Cc1nnc2ccc(NCC3(N4CCCCC4)CCOCC3)nn12`, for which the cytotoxicity at 70.5 h is -4.4%.

In the case of `Cc1ccsc1C(=O)N1CCC(Nc2cccnc2)CC1`, the cytotoxicity at 70.5 h is -4.2%.

With `O=C1CC(NCc2ccncc2)CN1CCc1cccc(Cl)c1` (stereo not given), the cytotoxicity at 70.5 h is -6.56%.

`Cc1cc(C(=O)N(CC2CCCO2)c2ccncc2)c(C)o1` (stereo not given): the cytotoxicity at 70.5 h is -9.47%.

In the case of `CSCCC(CO)NC(=O)c1sc(-c2ccccc2Cl)nc1C` (stereo not given), the cytotoxicity at 70.5 h was -23.9%.

Regarding `CCCNC(=O)c1ccc(NC(=O)c2cccc(OCC)c2)cc1`, the cytotoxicity at 70.5 h was -7.63%.

Take `CC(=O)NCCNC(=O)c1nc(C2CC2)n(-c2ccccc2Cl)n1`: the cytotoxicity at 70.5 h was -13.6%.

Turning to `CC(NCc1cnc(C2CCC2)s1)c1cccc(-n2cccn2)c1` (stereo not given), the cytotoxicity at 70.5 h was 16.3%.

On to `COc1cc(CN2C[C@H](OC)[C@]3(CCCO3)C2)ccc1F`, for which the cytotoxicity at 70.5 h amounted to 19.1%.

Turning to `O=C(O)C1c2nc[nH]c2CCN1CC(c1ccccc1)c1ccccc1` (stereo not given), the cytotoxicity at 70.5 h was -3.04%.

Consider `N#Cc1ncn(Cc2c(F)cccc2Cl)n1`, for which the cytotoxicity at 70.5 h is -5.34%.

With `N#CCCCn1nnnc1Cc1ccc(Br)cc1`, the cytotoxicity at 70.5 h was -13.9%.

For `CC(NC(=O)c1cc(Br)c2c(c1)OCCO2)C(N)=O` (stereo not given), the cytotoxicity at 70.5 h is 16.6%.

Consider `CCc1c(C)nc2n(c1=O)CC(C(=O)Nc1ccccc1C)CS2` (stereo not given), for which the cytotoxicity at 70.5 h was 4.11%.

In the case of `CCS(=O)(=O)N1CCCCC1c1nc(CC(C)C)no1` (stereo not given), the cytotoxicity at 70.5 h is -8.14%.

For `N#Cc1ccnc(N2CCN(C(=O)c3ccc4c(c3)CCO4)CC2)c1`, the cytotoxicity at 70.5 h was -3.35%.

Consider `Cc1cc(N(C)C)nc(C2CCCN2)n1` (stereo not given), for which the cytotoxicity at 70.5 h is -3.78%.

Turning to `OCC1N(Cc2ccco2)[C@H]2CC[C@]1(O)CC2` (stereo not given in full), the cytotoxicity at 70.5 h is -9.15%.

For the compound `CC(C)(C)c1nnc(NCc2ccc(F)cc2)o1`, the cytotoxicity at 70.5 h was -2.71%.

`COCc1nc(NCC2CCS(=O)(=O)C2)c2cnn(C)c2n1` (stereo not given): the cytotoxicity at 70.5 h was -7.96%.

As to `CC(=O)NCCC1CCN(c2nc(C(C)(C)C)nc3c2cnn3C)CC1`, the cytotoxicity at 70.5 h is -1.1%.

Take `CCCc1cncnc1N1CCC2(CCC(=O)N(C3CCCC3)C2)CC1`: the cytotoxicity at 70.5 h is -12.7%.

For the compound `CCOc1ccc(OC2CCCN(c3cnn(C)c3)C2=O)cc1` (stereo not given), the cytotoxicity at 70.5 h stood at 10.6%.

Regarding `CO[C@H]1CN(Cc2cc(Cn3cncn3)c(C)cc2C)CC[C@H]1N`, the cytotoxicity at 70.5 h was 6.57%.

For `O=C1CO[C@H](c2ccc(NS(=O)(=O)c3ccccc3)cc2)[C@@H](CO)N1`, the cytotoxicity at 70.5 h amounted to 11.6%.

As to `Cc1cnn(CC2CN(c3ncnc4[nH]ccc34)CCO2)c1` (stereo not given), the cytotoxicity at 70.5 h worked out at 1.56%.

Consider `O=C(C1CC=CC1)N1CCc2ncnc(-c3ccncc3)c2CC1`, for which the cytotoxicity at 70.5 h is 0.995%.

In the case of `Cn1ccnc1CN1CCN2C[C@H](OCc3ccccc3)C[C@H]2C1`, the cytotoxicity at 70.5 h is -1.75%.

As for `COC(=O)N1CCCN(C(=O)NCc2ccc(Cl)s2)CC1`, the cytotoxicity at 70.5 h is 10.1%.

In the case of `CCN1CCC(N2CCC(c3nc(C)cc(C)n3)C2)CC1` (stereo not given), the cytotoxicity at 70.5 h was -2.1%.

On to `CCn1ccnc1CN(C)c1nc(-c2ccc(Cl)cc2)nc2c1CNC2`, for which the cytotoxicity at 70.5 h was -9.22%.

Consider `c1cc(CN2C[C@@H]3OCCN(CC4CC4)[C@@H]3C2)n[nH]1`, for which the cytotoxicity at 70.5 h was -7.71%.

As to `O=C(c1ccoc1)N1CCCN(C(=O)c2ccc(C3CCCN3)s2)CC1` (stereo not given), the cytotoxicity at 70.5 h was -7.17%.

For the compound `Cc1nc(CN(C)Cc2nc(-c3sccc3C)oc2C)no1`, the cytotoxicity at 70.5 h is -3%.

As to `Oc1cc(-c2ccsc2)nc(C2CCN(Cc3cccnc3)CC2)n1`, the cytotoxicity at 70.5 h is -5.93%.

As for `CN1[C@H](CO)C[C@H](CNCc2ccc(Cl)c(F)c2)[C@@H]1c1ccccc1F`, the cytotoxicity at 70.5 h was -3.08%.

As for `COCCCC(=O)Nc1cccnc1N1CCCCC1`, the cytotoxicity at 70.5 h was -10.4%.

Regarding `O=C(CC1CSc2nccc(=O)n21)NCc1ccco1` (stereo not given), the cytotoxicity at 70.5 h is -1.36%.

On to `CN(CCc1ccccn1)C(=O)c1cn(CCN2CCNCC2)nn1`, for which the cytotoxicity at 70.5 h is -10.7%.

Regarding `Cc1cc(N2CCCCC2)c(C#N)c(C)n1`, the cytotoxicity at 70.5 h was -5.91%.

Turning to `CCn1c(C2CCN(C(=O)COCC(F)(F)C(F)F)CC2)n[nH]c1=O`, the cytotoxicity at 70.5 h was -6.79%.

Turning to `CNc1nnc(SCc2nnc(C(C)(C)C)o2)s1`, the cytotoxicity at 70.5 h amounted to 15.4%.

As for `Cc1cc(NC(=O)NCC(c2ccccc2)N2CCOCC2)n(C)n1` (stereo not given), the cytotoxicity at 70.5 h was -3.59%.

Consider `O=C(C(C1CC1)C1CC1)N1CCC(n2ccnn2)CC1`, for which the cytotoxicity at 70.5 h was -9.3%.

`c1ncn(CC2CCCCN2Cc2csc(-c3ccsc3)n2)n1` (stereo not given): the cytotoxicity at 70.5 h is -7.71%.

`Cc1noc(CNC(=O)N2CCN(c3nc(C)c(C)s3)CC2)n1`: the cytotoxicity at 70.5 h was -3.61%.

`Cc1cc(C[S+]([O-])Cc2ccccc2F)no1` (stereo not given): the cytotoxicity at 70.5 h was determined as 16.6%.

As for `Cc1noc(C)c1-c1ccc(C2CCCN2C(=O)c2cccnc2)nc1` (stereo not given), the cytotoxicity at 70.5 h is -4.62%.

Take `Cc1ccccc1NC1CCN(C(=O)CCc2ccco2)CC1`: the cytotoxicity at 70.5 h was determined as 1.41%.

On to `CC(C)c1noc(CN2CCC(c3ccnn3CCO)CC2)n1`, for which the cytotoxicity at 70.5 h is -3.73%.

Take `CNC(=O)CN1CCCC12CCN(C(=O)c1ccccc1F)CC2`: the cytotoxicity at 70.5 h is -10.4%.

For the compound `Cc1noc([C@@H]2CCO[C@@H]3CCN(Cc4ccc(C)s4)C[C@@H]32)n1`, the cytotoxicity at 70.5 h was -10.1%.

Regarding `COc1ccc(C(=O)COc2coc(CN3CCCCC3)cc2=O)cc1`, the cytotoxicity at 70.5 h was -5.06%.

As to `CCOc1cccc(CCNC(=O)Cc2ccccc2O)n1`, the cytotoxicity at 70.5 h was -14.9%.

`Cc1cc(F)ccc1CNCc1cccc(C(=O)N2CCCC2)c1`: the cytotoxicity at 70.5 h was -1.53%.

Consider `Cc1cc(S(C)(=O)=O)c(C)c(S(=O)(=O)N2CCN(C)CC2)c1`, for which the cytotoxicity at 70.5 h came out at 32.6%.

As for `CCc1ccc(CNC(=O)NC(C)CN2CCOCC2)s1` (stereo not given), the cytotoxicity at 70.5 h was 6.35%.

With `COc1ccccc1OCCCn1c(C)c(C)oc1=O`, the cytotoxicity at 70.5 h was 2.36%.

As to `CCc1ccc(C(=O)O)cc1S(=O)(=O)Nc1c(C)ccn(C)c1=O`, the cytotoxicity at 70.5 h is -9.15%.

For `O=C(N[C@@H]1CC[C@@H](N2CCCC2)[C@@H]1O)c1cc2cccc(F)c2[nH]1`, the cytotoxicity at 70.5 h is -9.84%.

In the case of `COCC(=O)N1CCC2(CC1)CC(c1cnn(C)c1)C(=O)N2` (stereo not given), the cytotoxicity at 70.5 h is -6.84%.

Turning to `CCN(C)c1ncnc2c1CCN(C(=O)N(C)C)CC2`, the cytotoxicity at 70.5 h worked out at 0.982%.

Turning to `Cc1occc1C(=O)N1CCC2(CC1)CN(c1ccccn1)CCO2`, the cytotoxicity at 70.5 h was -5.88%.

For the compound `CCn1ncnc1CN1CCC(CNC(=O)c2cccc(C)n2)C1` (stereo not given), the cytotoxicity at 70.5 h was -5.47%.

`COc1c(C2CCCN2Cc2noc(C(C)C)n2)c(C)nn1C` (stereo not given): the cytotoxicity at 70.5 h came to 28.5%.

Take `Cc1nc(Nc2nnc(C)s2)cc(C2CCCN2c2ccncn2)n1` (stereo not given): the cytotoxicity at 70.5 h was -8.94%.

For the compound `CCCc1noc(C(C)N2CCN(c3ccc(C#N)cn3)CC2)n1` (stereo not given), the cytotoxicity at 70.5 h was -10.8%.

As for `Cn1ncc2c(NCC3CCCN3c3cccnn3)ncnc21` (stereo not given), the cytotoxicity at 70.5 h is -3.62%.

For `Cc1nnc(CNC(=O)[C@@H]2C[C@H](NC(=O)C(C)(C)C)CN2C)[nH]1`, the cytotoxicity at 70.5 h is -9.08%.

As to `Cn1c(C2CC2)nc2c1CCN(CC(=O)Nc1ccncc1)C2`, the cytotoxicity at 70.5 h was 4.27%.

With `O=C(NCCCc1nc(=O)[nH][nH]1)Nc1cccc(F)c1`, the cytotoxicity at 70.5 h was -1.96%.

Regarding `COc1ccccc1COCC(O)CN1CCC(c2ccn[nH]2)CC1` (stereo not given), the cytotoxicity at 70.5 h is -8.12%.

In the case of `c1cnn(Cc2cn3c(n2)CN(Cc2nccs2)CC3)c1`, the cytotoxicity at 70.5 h was -3.15%.

Take `Cn1cnc2c1CCN(Cc1cccc(C(=O)N3CCCCC3)c1)C2`: the cytotoxicity at 70.5 h is -7.19%.

Regarding `Cc1ccsc1CN(CCN(C)C)Cc1ccccn1`, the cytotoxicity at 70.5 h is -4.97%.
